What is called IC50 is the concentration that inhibits the measured activity by half.

Common to all, as to type: cell-based
One test concerns the target T1, human TLR7 (Homo sapiens, UniProt Q9NYK1).
T1 construct: host or cells: HEK-Blue cells (HEK293-derived reporter line)
T1 sequence (Q9NYK1 27-1049): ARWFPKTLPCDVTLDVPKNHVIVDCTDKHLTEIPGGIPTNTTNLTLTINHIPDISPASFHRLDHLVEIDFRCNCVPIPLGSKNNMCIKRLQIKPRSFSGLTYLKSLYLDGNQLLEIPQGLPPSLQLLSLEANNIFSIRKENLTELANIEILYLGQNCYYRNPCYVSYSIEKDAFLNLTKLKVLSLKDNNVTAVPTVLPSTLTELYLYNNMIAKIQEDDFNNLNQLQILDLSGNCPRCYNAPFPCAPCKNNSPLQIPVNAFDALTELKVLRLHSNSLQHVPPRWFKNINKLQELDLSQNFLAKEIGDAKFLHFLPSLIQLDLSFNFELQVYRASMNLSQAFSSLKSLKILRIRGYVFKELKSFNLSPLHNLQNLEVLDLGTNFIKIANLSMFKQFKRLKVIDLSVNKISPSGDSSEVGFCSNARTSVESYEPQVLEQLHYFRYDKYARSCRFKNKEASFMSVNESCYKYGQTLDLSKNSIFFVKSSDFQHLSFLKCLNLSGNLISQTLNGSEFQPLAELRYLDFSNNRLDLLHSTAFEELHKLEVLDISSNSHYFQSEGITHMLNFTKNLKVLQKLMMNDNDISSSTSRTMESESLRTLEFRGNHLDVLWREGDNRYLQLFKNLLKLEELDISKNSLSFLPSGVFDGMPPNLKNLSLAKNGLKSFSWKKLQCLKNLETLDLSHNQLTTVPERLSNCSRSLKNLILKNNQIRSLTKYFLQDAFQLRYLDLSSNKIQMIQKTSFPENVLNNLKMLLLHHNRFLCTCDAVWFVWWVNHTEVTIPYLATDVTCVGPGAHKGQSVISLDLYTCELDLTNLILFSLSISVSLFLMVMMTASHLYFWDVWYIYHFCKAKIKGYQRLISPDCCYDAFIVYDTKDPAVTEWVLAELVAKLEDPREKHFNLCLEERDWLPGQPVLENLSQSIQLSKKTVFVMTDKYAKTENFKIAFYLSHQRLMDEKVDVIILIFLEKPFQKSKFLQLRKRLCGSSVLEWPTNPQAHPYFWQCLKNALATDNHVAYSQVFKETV
The test is described as follows: TLR7 inhibition reporter assay (HEK-Blue cells, secreted embryonic alkaline phosphatase reporter). The conditions noted are these: HEK-Blue cells overexpressing human TLR7, stimulated with gardiquimod 7.5 μM; read-out: TLR 7 IC50. Summed up: (§1)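 Agonist-driven SEAP output was measured in HEK-Blue reporter cells carrying human TLR7 (gardiquimod 7.5 μM), TLR8 (R848 15.9 μM) or TLR9 (ODN2006 5 nM). Compounds at 0.05 nM–50 μM final were added 30 min before stimulation at room temperature. After 22 h at 37 °C, percent inhibition was taken against agonist/DMSO wells and a reference inhibitor.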
A general note: Reporter assays use an easily measured gene product as a stand-in for the process of interest.

The target in the next test is T2, human TLR8 (Homo sapiens, UniProt Q9NR97).
T2 construct: host or cells: HEK-Blue cells (HEK293-derived reporter line)
T2 sequence (Q9NR97 27-1041): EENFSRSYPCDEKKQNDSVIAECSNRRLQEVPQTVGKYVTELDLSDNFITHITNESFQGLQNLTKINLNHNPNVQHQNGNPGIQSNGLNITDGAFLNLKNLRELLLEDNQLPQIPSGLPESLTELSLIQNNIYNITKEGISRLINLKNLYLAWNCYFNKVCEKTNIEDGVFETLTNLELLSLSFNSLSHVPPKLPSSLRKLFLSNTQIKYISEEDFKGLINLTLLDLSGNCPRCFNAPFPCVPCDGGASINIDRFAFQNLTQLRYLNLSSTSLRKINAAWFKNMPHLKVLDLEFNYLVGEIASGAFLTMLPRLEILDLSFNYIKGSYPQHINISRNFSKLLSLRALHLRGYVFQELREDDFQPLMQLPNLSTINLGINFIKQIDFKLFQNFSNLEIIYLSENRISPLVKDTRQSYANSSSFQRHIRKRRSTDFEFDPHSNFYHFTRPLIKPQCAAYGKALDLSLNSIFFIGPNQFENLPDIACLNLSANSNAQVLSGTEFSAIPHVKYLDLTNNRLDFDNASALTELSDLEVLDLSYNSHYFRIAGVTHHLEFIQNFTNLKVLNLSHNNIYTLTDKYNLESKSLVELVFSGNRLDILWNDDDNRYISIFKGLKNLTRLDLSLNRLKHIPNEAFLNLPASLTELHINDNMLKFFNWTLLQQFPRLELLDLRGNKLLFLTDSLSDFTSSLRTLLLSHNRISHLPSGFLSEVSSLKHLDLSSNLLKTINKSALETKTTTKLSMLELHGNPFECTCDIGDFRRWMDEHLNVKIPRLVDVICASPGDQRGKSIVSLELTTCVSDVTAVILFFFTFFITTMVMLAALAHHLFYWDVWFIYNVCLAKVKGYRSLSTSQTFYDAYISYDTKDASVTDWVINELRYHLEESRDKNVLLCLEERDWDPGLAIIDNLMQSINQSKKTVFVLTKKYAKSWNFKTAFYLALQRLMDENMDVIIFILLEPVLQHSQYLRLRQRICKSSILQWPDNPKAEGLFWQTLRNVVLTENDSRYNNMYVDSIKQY
The test is described as follows: TLR8 inhibition reporter assay (HEK-Blue cells, secreted embryonic alkaline phosphatase reporter). The settings on record: HEK-Blue cells overexpressing human TLR8, stimulated with R848 15.9 μM; read-out: TLR 8 IC50. Summed up: as §1

Another test addresses T3, human TLR9 (Homo sapiens, UniProt Q9NR96).
T3 construct: host or cells: HEK-Blue cells (HEK293-derived reporter line)
T3 sequence (Q9NR96 26-1032): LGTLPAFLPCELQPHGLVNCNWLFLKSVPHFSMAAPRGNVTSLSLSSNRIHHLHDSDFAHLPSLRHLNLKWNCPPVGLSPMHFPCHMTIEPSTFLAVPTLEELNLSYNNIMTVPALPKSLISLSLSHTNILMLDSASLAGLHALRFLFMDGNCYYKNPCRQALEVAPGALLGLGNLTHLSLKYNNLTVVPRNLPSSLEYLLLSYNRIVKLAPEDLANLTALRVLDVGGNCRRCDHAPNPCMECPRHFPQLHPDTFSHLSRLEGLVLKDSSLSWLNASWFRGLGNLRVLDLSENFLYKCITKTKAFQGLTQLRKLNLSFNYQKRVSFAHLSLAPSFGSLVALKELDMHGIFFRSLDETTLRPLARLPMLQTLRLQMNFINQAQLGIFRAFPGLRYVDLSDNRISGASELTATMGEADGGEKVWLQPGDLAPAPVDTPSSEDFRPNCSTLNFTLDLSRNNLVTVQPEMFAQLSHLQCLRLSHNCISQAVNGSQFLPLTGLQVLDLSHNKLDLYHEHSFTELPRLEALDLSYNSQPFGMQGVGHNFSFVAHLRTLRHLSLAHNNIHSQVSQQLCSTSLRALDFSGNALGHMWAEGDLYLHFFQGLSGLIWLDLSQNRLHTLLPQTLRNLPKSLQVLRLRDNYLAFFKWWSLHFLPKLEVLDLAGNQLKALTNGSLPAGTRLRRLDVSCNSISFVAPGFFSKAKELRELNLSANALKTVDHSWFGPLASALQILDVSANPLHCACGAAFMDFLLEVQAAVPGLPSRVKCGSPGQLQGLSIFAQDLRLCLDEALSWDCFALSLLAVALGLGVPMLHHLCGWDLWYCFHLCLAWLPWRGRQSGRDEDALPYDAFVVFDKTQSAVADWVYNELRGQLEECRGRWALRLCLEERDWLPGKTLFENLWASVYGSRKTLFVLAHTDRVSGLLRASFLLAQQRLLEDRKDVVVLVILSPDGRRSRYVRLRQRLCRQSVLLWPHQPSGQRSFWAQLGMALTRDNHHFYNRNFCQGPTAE
Briefly: TLR9 inhibition reporter assay (HEK-Blue cells, secreted embryonic alkaline phosphatase reporter). The conditions noted are these: HEK-Blue cells overexpressing human TLR9, stimulated with ODN2006 5 nM. The gist of the method: as §1

Where [1] appears, read: 22 hour incubation, reporter readout.

Where two headings read alike, the source gives them in different places. Some results are limits rather than exact numbers.

Consider `COc1ccc(-c2nc3c(C)cc(C4CCN(C5CCN(C(C)C)CC5)CC4)cc3[nH]2)cc1F` [Example 24, 2-(3-fluoro-4-methoxyphenyl)-6-(1′-isopropyl-[1,4′-bipiperidin]-4-yl)-4-methyl-1H-benzo[d]imidazole], for which the values for the IC50 at human TLR7, at human TLR8 and at human TLR9 (setting [1]) were 3000 nM, greater than 50000 nM and 48 nM, respectively.

As for `Cc1cc(C2CCN(C3CCN(CC(C)C)CC3)CC2)cc2[nH]c(-c3ccc4nccn4c3)nc12` [Example 25, 2-(imidazo[1,2-a]pyridin-6-yl)-6-(1′-isobutyl-[1,4′-bipiperidin]-4-yl)-4-methyl-1H-benzo[d]imidazole], the IC50 is 3000 nM on human TLR7, greater than 50000 nM on human TLR8, 160 nM against human TLR9 (setting [1]) and 164 nM on human TLR9 (read-out: TLR 9 IC50).

In the case of `COc1ccc(-c2nc3ccc(C4CCN(C5CCN(CC(C)C)CC5)CC4)cc3n2C)cc1OC` [Example 26, 2-(3,4-dimethoxyphenyl)-6-(1′-isobutyl-[1,4′-bipiperidin]-4-yl)-1-methyl-1H-benzo[d]imidazole], the IC50 at human TLR7 is 32000 nM; on human TLR8, greater than 50000 nM; against human TLR9 (setting [1]), 130 nM; at human TLR9 (read-out: TLR 9 IC50), 132 nM.

For `COc1ccc(-c2nc3ccc(C4CCN(C5CCN(C6CC6)CC5)CC4)cc3n2C)cc1OC` [Example 27, 6-(1′-cyclopropyl-[1,4′-bipiperidin]-4-yl)-2-(3,4-dimethoxyphenyl)-1-methyl-1H-benzo[d]imidazole], the half-inhibitory concentration (IC50) at human TLR7 was 2400 nM; on human TLR8 it was greater than 50000 nM; at human TLR9 (setting [1]), 110 nM; on human TLR9 (read-out: TLR 9 IC50) it was 106 nM.

For the compound `COc1ccc(-c2nc3ccc(C4CCN(C5CCN(CC(C)C)CC5)CC4)cc3[nH]2)cc1OC` [Example 28, 2-(3,4-dimethoxyphenyl)-6-(1′-isobutyl-[1,4′-bipiperidin]-4-yl)-1H-benzo[d]imidazole], the half-inhibitory concentration (IC50) was 2700 nM on human TLR7, greater than 50000 nM on human TLR8, 19 nM against human TLR9 (setting [1]) and 19 nM on human TLR9 (read-out: TLR 9 IC50).

Consider `COc1ccc(-c2nc3ccc(C4CCN(C5CCN(C6CC6)CC5)CC4)cc3[nH]2)cc1OC` [Example 29, 6-(1′-cyclopropyl-[1,4′-bipiperidin]-4-yl)-2-(3,4-dimethoxyphenyl)-1H-benzo[d]imidazole], for which the half-maximal inhibitory concentration (IC50) on human TLR7 is 6600 nM; on human TLR8, greater than 50000 nM; against human TLR9 (setting [1]), 110 nM; on human TLR9 (read-out: TLR 9 IC50), 11.2 nM.

In the case of `COc1ccc(-c2nc3ccc(C4CCN(C5CCN(CC(C)C)CC5)CC4)cc3n2C(C)C)cc1OC` [Example 30, 2-(3,4-dimethoxyphenyl)-6-(1′-isobutyl-[1,4′-bipiperidin]-4-yl)-1-isopropyl-1H-benzo[d]imidazole], the IC50 at human TLR7 was 9800 nM; on human TLR8, greater than 50000 nM; against human TLR9 (setting [1]), 250 nM; at human TLR9 (read-out: TLR 9 IC50), 254 nM.

As for `COc1ccc(-c2nc3ccc(C4CCN(C5CCN(C6CC6)CC5)CC4)cc3n2C(C)C)cc1OC` [Example 31, 6-(1′-cyclopropyl-[1,4′-bipiperidin]-4-yl)-2-(3,4-dimethoxyphenyl)-1-isopropyl-1H-benzo[d]imidazole], the IC50 on human TLR7 is greater than 50000 nM; on human TLR8, greater than 50000 nM; against human TLR9 (setting [1]), 750 nM; at human TLR9 (read-out: TLR 9 IC50), 749 nM.

`COc1ccc(-c2nc3ccc(C4CCN(C5CCN(CC(C)C)CC5)CC4)cc3n2CC(F)F)cc1OC` [Example 32, 1-(2,2-difluoroethyl)-2-(3,4-dimethoxyphenyl)-6-(1′-isobutyl-[1,4′-bipiperidin]-4-yl)-1H-benzo[d]imidazole]: the half-maximal inhibitory concentration (IC50) on human TLR7 is 5700 nM; on human TLR8, greater than 50000 nM; against human TLR9 (setting [1]), 210 nM; on human TLR9 (read-out: TLR 9 IC50), 212 nM.

As for `COc1ccc(-c2nc3ccc(C4CCN(C5CCN(C6CC6)CC5)CC4)cc3n2CC(F)F)cc1OC` [Example 33, 6-(1′-cyclopropyl-[1,4′-bipiperidin]-4-yl)-1-(2,2-difluoroethyl)-2-(3,4-dimethoxyphenyl)-1H-benzo[d]imidazole], the 50% inhibitory concentration (IC50) came out at 8100 nM at human TLR7, 35000 nM at human TLR8, 680 nM at human TLR9 (setting [1]) and 681 nM at human TLR9 (read-out: TLR 9 IC50).
